Measured values published in patent publication US20100179225A1, “POI Prevention” (CYTOKINE PHARMASCIENCES, INC., priority 2008, published 2010).

What was measured:
p38-MAPK = p38-MAPK activation in CSF-1 mutant op−/− mice (Pathscan-Phospho-p38α-ELISA); type: in vivo; conditions: 5 mg/kg i.v. preoperative, 20 minutes after IM, mean±SEM
Source text: Male C57BL/6J mice ([…] bodyweight) were obtained from Harlan-Winkelmann (Borchen, Germany). CSF-1 mutant op−/− mice (strain B6C3Fe a/a-Csf1op) and populations of unknown heterozygous or wildtype genotype (op+/?) of mixed gender were used at an age of 6 weeks and bred as described before (Wehner S, Behrendt F F, Lyutenski B N et al. Inhibition of macrophage function prevents intestinal inflammation and postoperative ileus in rodents. Gut 2007; 56:176-185). op−/− mice were phenotyped by the absence of incisors at day P10. All experiments were performed in accordance with the federal law regarding the protection of animals. The principles of laboratory animal care were followed. Animals were maintained on a 12-hour light/dark cycle and provided with commercially available rodent chow and tap water ad libitum.
p38-MAPK phosphorylation was evaluated in unoperated homozygous colony stimulating factor-1 mutant mice (op−/−) mice, or in op−/− and op+/? mice (a mixed population of unknown heterozygous +/− or homozygous +/+ wildtype mice) 20 minutes after IM. […] Additionally, CNI-1493 (5 mg/kg) pretreated op−/− mice were analyzed. In this experiment, p38-MAPK phosphorylation was quantified by the Pathscan-Phospho-p38α-ELISA following manufacturer's instructions. Phospho-p38 content of each probe was determined in duplicate from lysates with 6.25 μg total protein content.

MIP-1α mRNA = test: Proinflammatory gene expression in ME, real-time RT-PCR: MIP-1α; type: in vivo, mice; conditions: 5 mg/kg i.v. preoperative, vs placebo IM
Source text: (§1) The small bowel of the animals was subjected to a standardized, surgical manipulation (IM) as described previously (Kalff J C, Schraut W H, Simmons R L et al. Surgical manipulation of the gut elicits an intestinal muscularis inflammatory response resulting in postsurgical ileus. Ann Surg 1998; 228:652-663; Wehner S, Schwarz N T, Hundsdoerfer R et al. Induction of IL-6 within the rodent intestinal muscularis after intestinal surgical stress. Surgery 2005; 137:436-446). In brief, after anesthesia a midline abdominal incision was made into the peritoneal cavity. […]
(§2) Proinflammatory gene expression was analyzed in placebo and CNI-1493 (5 mg/kg) treated animals at 1, 3, 6 and 24 hours after operation; n=5-7 each group. […] Total RNA was analyzed in ME specimen that was prepared as described before (Wehner S, Behrendt F F, Lyutenski B N et al. Inhibition of macrophage function prevents intestinal inflammation and postoperative ileus in rodents. Gut 2007; 56:176-185). […] Expression of mRNA was quantified in triplicate by a RT-PCR with gene expression assays for […] (MCP-1; #Mm00441242_m1), CCL3 (MIP-1α #Mm00441258_m1), IL-6 (Assay ID #Mm00446190_ml), TNF-α (#Mm00443258_m1) and ICAM-1 (#Mm00516023_m1). […] Data quantification was performed by the ΔΔCT method. […]

ICAM-1 mRNA = test: Proinflammatory gene expression in ME, real-time RT-PCR: ICAM-1; type: in vivo, mice; conditions: 5 mg/kg i.v. preoperative
Source text: as §1, §2

[1] = test system: circular smooth muscle of the graft; test: Mechanical in vitro activity of mid-jejunum graft circular smooth muscle (bethanechol); type: in vivo, Lewis rats; conditions: 1 mg/kg i.v. 90 min before; 18 h reperfusion; 100 μmol/L bethanechol
Protocol: Syngeneic orthotopic small intestinal transplantation was performed in Lewis rats as previously described (Schwarz N T, Nakao A, Nalesnik M A, Kalff J C, Murase N, Bauer A J. Protective effects of ex vivo graft radiation and tacrolimus on syngeneic transplanted rat small bowel motility. Surgery 2002; 131: 413-423). […] Then the graft vascular bed was perfused with chilled UW solution (University of Wisconcin) and the intestinal lumen was irrigated with 50 ml cold 0.9% NaCl solution containing […]. neomycin sulfate (Uro Nebacetin N, Nycomed, Germany). The graft was stored in cold UW solution during the preparation of the recipient. […]
Mechanical in vitro activity of the mid-jejunum was evaluated at 18 hours after reperfusion using smooth muscle strips of the circular muscularis as described previously (N=8 each) (Kalff J C, Schraut W H, Simmons R L, Bauer A J. Surgical manipulation of the gut elicits an intestinal muscularis inflammatory response resulting in postsurgical ileus. Ann Surg 1998; 228: 652-663). […] The contractile response was analyzed with the ADI Chart© software and the contractions were calculated as grams per square millimeter per second by conversion of the weight and length of the strip to square millimeters of tissue.

## C/C(=N\N=C(N)N)c1cc(NC(=O)CCCCCCCCC(=O)Nc2cc(/C(C)=N/N=C(N)N)cc(/C(C)=N/N=C(N)N)c2)cc(/C(C)=N/N=C(N)N)c1.Cl.Cl.Cl.Cl [CNI-1493]
p38-MAPK
  p38-MAPK phosphorylation levels (phospho-p38 ELISA): 3.24±0.66
MIP-1α mRNA; 3 hours after IM
  reduction of MIP-1α expression: 50%
MIP-1α mRNA; 6 hours after IM
  reduction of MIP-1α expression: 39%
ICAM-1 mRNA; 1 hour after IM
  ICAM-1 mRNA expression (fold upregulation): 3.3±0.70 fold
ICAM-1 mRNA; 3 hours after IM
  ICAM-1 mRNA expression (fold upregulation): 7.2±2.8 fold

## C/C(=N\N=C(N)N)c1cc(NC(=O)CCCCCCCCC(=O)Nc2cc(/C(C)=N/N=C(N)N)cc(/C(C)=N/N=C(N)N)c2)cc(/C(C)=N/N=C(N)N)c1.CS(=O)(=O)O.CS(=O)(=O)O.CS(=O)(=O)O.CS(=O)(=O)O [CPSI-2364]
[1]
  circular smooth muscle contractile force: 3.63 grams/mm2/sec
  increase in circular smooth muscle contractile activity in comparison to the vehicle grafts: 96%
